Measurements as given in patent publication US20060069132A1, “Azolecarboxamide herbicides” (priority 2004, published 2006).

Assays:
large crabgrass = assay: Test B pre-/postemergence herbicide test; type: in vivo, Digitaria sanguinalis; settings: for Plant response rating (0 to 100 scale), Crabgrass, Large: 0 is no effect, 100 is complete control, preemergence
Method in brief: (§1)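 Seeds were planted and treated preemergence with compounds formulated in a non-phytotoxic solvent mixture containing surfactant, while plants at the 1- to 4-leaf stage (2 to 18 cm) received postemergence sprays. Flooded paddy plants were grown to the 2-leaf stage. After 13 to 15 days in a greenhouse, injury was visually rated 0–100 against untreated controls.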

lambsquarters = assay: Test B pre-/postemergence herbicide test; type: in vivo, Chenopodium album
Method in brief: as §1

blackgrass = assay: Test B postemergence herbicide test; type: in vivo, Alopecurus myosuroides
Method in brief: (§2)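 Plants grow to 1- to 4-leaf stage (2–18 cm) for postemergence spraying, or to 2-leaf stage for the paddy test. Formulated compound is applied. Greenhouse holding lasts 13–15 days. Response is scored visually relative to controls, 0 no effect to 100 complete control; a dash means no result.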

[1] = system: small flower umbrella sedge; assay: Test B flooded paddy test; type: in vivo, Cyperus difformis; settings: 1000 g ai/ha, scale 0 to 100 (0 no effect, 100 complete control)
Method in brief: as §2

ducksalad = assay: Test B flooded paddy test; type: in vivo, Heteranthera limosa; settings: 1000 g ai/ha, scale 0 to 100 (0 no effect, 100 complete control)
Method in brief: as §2

corn = assay: Test B pre-/postemergence herbicide test; type: in vivo, Zea mays; settings: for Plant response rating (0 to 100 scale), Corn: 0 is no effect, 100 is complete control, preemergence
Method in brief: as §1

wheat = assay: Test B postemergence herbicide test; type: in vivo, Triticum aestivum; set-up: key to Wheat plant response rating: 0 = no effect, 100 = complete control
Method in brief: as §2

rice = assay: Test B flooded paddy test; type: in vivo, Oryza sativa; settings: 1000 g ai/ha, scale 0 to 100 (0 no effect, 100 complete control)
Method in brief: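 Visual ratings, 0 (no effect) to 100 (complete control), made versus controls after 13–15 d greenhouse. Paddy plants treated at 2-leaf stage; postemergence plants at 1- to 4-leaf stage, 2–18 cm tall.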

morningglory = assay: Test B pre-/postemergence herbicide test; type: in vivo, Ipomoea coccinea; settings: for Plant response rating (0 to 100 scale), Morningglory: 0 is no effect, 100 is complete control, preemergence
Method in brief: (§3)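 Species tested were Echinochloa crus-galli, Ipomoea coccinea, Xanthium strumarium and Oryza sativa, treated both before emergence and at the 1- to 4-leaf stage; rice and barnyardgrass were also tested under flooding at 2 leaves. Greenhouse incubation lasted 13–15 days before visual 0–100 scoring.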

Surinam grass = assay: Test B pre-/postemergence herbicide test; type: in vivo, Urochloa decumbens; settings: for Plant response rating (0 to 100 scale), Surinam Grass: 0 is no effect, 100 is complete control, preemergence
Method in brief: as §1

barnyardgrass [2] = assay: Test B flooded paddy test; type: in vivo, Echinochloa crus-galli; settings: 1000 g ai/ha, scale 0 to 100 (0 no effect, 100 complete control)
Method in brief: as §2

velvetleaf = assay: Test B pre-/postemergence herbicide test; type: in vivo, Abutilon theophrasti; settings: for Plant response rating (0 to 100 scale), Velvetleaf: 0 is no effect, 100 is complete control, preemergence
Method in brief: as §1

barnyardgrass [3] = assay: Test B pre-/postemergence herbicide test; type: in vivo, Echinochloa crus-galli; settings: for Plant response rating (0 to 100 scale), Barnyardgrass: 0 is no effect, 100 is complete control, preemergence; for Barnyardgrass plant response rating: Postemergence, scale 0 (no effect) to 100 (complete control)
Method in brief: as §3

giant foxtail = assay: Test B pre-/postemergence herbicide test; type: in vivo, Setaria faberi; settings: for Plant response rating (0 to 100 scale), Foxtail, Giant: 0 is no effect, 100 is complete control, preemergence
Method in brief: as §1

cocklebur = assay: Test B pre-/postemergence herbicide test; type: in vivo, Xanthium strumarium; settings: for Plant response rating (0 to 100 scale), Cocklebur: 0 is no effect, 100 is complete control, preemergence
Method in brief: as §3

wild oat = assay: Test B postemergence herbicide test; type: in vivo, Avena fatua
Method in brief: as §2

pigweed = assay: Test B pre-/postemergence herbicide test; type: in vivo, Amaranthus retroflexus; settings: for Plant response rating (0 to 100 scale), Pigweed: 0 is no effect, 100 is complete control, preemergence
Method in brief: as §1

[4] = Postemergence, 500 g ai/ha, scale 0 (no effect) to 100 (complete control)
[5] = postemergence, 125 g ai/ha, scale 0 to 100
[6] = 500 g ai/ha, scale 0 to 100, 0 no effect, 100 complete control, preemergence

CCc1nn(C(C)(C)C)nc1C(=O)Nc1cccc(C(=O)N2CCCCC2)c1 [Compound 416]
Plant response rating (0 to 100 scale), Crabgrass, Large (large crabgrass; 125 g ai/ha): 100 | Crabgrass, Large plant response rating (large crabgrass; [4]): 40 | Crabgrass, Large plant response rating (large crabgrass; [5]): 30 | Lambsquarters plant response rating (lambsquarters; [4]): 80 | Lambsquarters plant response rating (lambsquarters; [5]): 70 | Blackgrass plant response rating (blackgrass; [4]): 30 | Blackgrass plant response rating (blackgrass; [5]): 20 | Sedge, Umbrella plant response rating [1]: 80 | Ducksalad plant response rating (ducksalad): 90 | Plant response rating (0 to 100 scale), Corn (corn; 125 g ai/ha): 20 | Corn plant response rating (corn; [4]): 30 | Corn plant response rating (corn; [5]): 20 | Wheat plant response rating (wheat; [6]): 60 | Wheat plant response rating (wheat; [4]): 30 | Wheat plant response rating (wheat; [5]): 20 | Rice plant response rating (rice): 70 | Plant response rating (0 to 100 scale), Morningglory (morningglory; 125 g ai/ha): 0 | Morningglory plant response rating (morningglory; [4]): 70 | Morningglory plant response rating (morningglory; [5]): 30 | Plant response rating (0 to 100 scale), Surinam Grass (Surinam grass; 125 g ai/ha): 60 | Surinam Grass plant response rating (Surinam grass; [4]): 30 | Surinam Grass plant response rating (Surinam grass; [5]): 20 | Barnyardgrass plant response rating (barnyardgrass [2]): 60 | Plant response rating (0 to 100 scale), Velvetleaf (velvetleaf; 125 g ai/ha): 10 | Velvetleaf plant response rating (velvetleaf; [4]): 50 | Velvetleaf plant response rating (velvetleaf; [5]): 40 | Plant response rating (0 to 100 scale), Barnyardgrass (barnyardgrass [3]; 125 g ai/ha): 70 | Barnyardgrass plant response rating (barnyardgrass [3]; 125 g ai/ha): 20 | Barnyardgrass plant response rating (barnyardgrass [3]; 500 g ai/ha): 30 | Plant response rating (0 to 100 scale), Foxtail, Giant (giant foxtail; 125 g ai/ha): 70 | Foxtail, Giant plant response rating (giant foxtail; [4]): 30 | Foxtail, Giant plant response rating (giant foxtail; [5]): 20 | Plant response rating (0 to 100 scale), Cocklebur (cocklebur; 125 g ai/ha): 0 | Cocklebur plant response rating (cocklebur; [4]): 60 | Cocklebur plant response rating (cocklebur; [5]): 50 | Oat, Wild plant response rating (wild oat; [4]): 40 | Oat, Wild plant response rating (wild oat; [5]): 30 | Plant response rating (0 to 100 scale), Pigweed (pigweed; 125 g ai/ha): 70 | Pigweed plant response rating (pigweed; [4]): 80 | Pigweed plant response rating (pigweed; [5]): 60

CCOC(=O)c1ccnc(NC(=O)c2nn(C(C)(C)C)nc2C)c1 [Compound 421]
Plant response rating (0 to 100 scale), Crabgrass, Large (large crabgrass; 125 g ai/ha): 0 | Crabgrass, Large plant response rating (large crabgrass; [4]): 0 | Crabgrass, Large plant response rating (large crabgrass; [5]): 0 | Plant response rating (0 to 100 scale), Lambsquarters (lambsquarters; 125 g ai/ha, 0 is no effect, 100 is complete control, preemergence): 0 | Lambsquarters plant response rating (lambsquarters; [4]): 0 | Lambsquarters plant response rating (lambsquarters; [5]): 0 | Blackgrass plant response rating (blackgrass; [4]): 20 | Blackgrass plant response rating (blackgrass; [5]): 20 | Sedge, Umbrella plant response rating [1]: 0 | Ducksalad plant response rating (ducksalad): 0 | Plant response rating (0 to 100 scale), Corn (corn; 125 g ai/ha): 0 | Corn plant response rating (corn; [4]): 0 | Corn plant response rating (corn; [5]): 0 | Wheat plant response rating (wheat; [6]): 0 | Wheat plant response rating (wheat; [4]): 0 | Wheat plant response rating (wheat; [5]): 0 | Rice plant response rating (rice): 0 | Plant response rating (0 to 100 scale), Morningglory (morningglory; 125 g ai/ha): 0 | Morningglory plant response rating (morningglory; [4]): 0 | Morningglory plant response rating (morningglory; [5]): 0 | Plant response rating (0 to 100 scale), Surinam Grass (Surinam grass; 125 g ai/ha): 0 | Surinam Grass plant response rating (Surinam grass; [4]): 0 | Surinam Grass plant response rating (Surinam grass; [5]): 0 | Barnyardgrass plant response rating (barnyardgrass [2]): 0 | Plant response rating (0 to 100 scale), Velvetleaf (velvetleaf; 125 g ai/ha): 0 | Velvetleaf plant response rating (velvetleaf; [4]): 0 | Velvetleaf plant response rating (velvetleaf; [5]): 0 | Plant response rating (0 to 100 scale), Barnyardgrass (barnyardgrass [3]; 125 g ai/ha): 0 | Barnyardgrass plant response rating (barnyardgrass [3]; 125 g ai/ha): 0 | Barnyardgrass plant response rating (barnyardgrass [3]; 500 g ai/ha): 0 | Plant response rating (0 to 100 scale), Foxtail, Giant (giant foxtail; 125 g ai/ha): 0 | Foxtail, Giant plant response rating (giant foxtail; [4]): 0 | Foxtail, Giant plant response rating (giant foxtail; [5]): 0 | Plant response rating (0 to 100 scale), Cocklebur (cocklebur; 125 g ai/ha): 0 | Cocklebur plant response rating (cocklebur; [4]): 0 | Cocklebur plant response rating (cocklebur; [5]): 0 | Oat, Wild plant response rating (wild oat; [4]): 0 | Oat, Wild plant response rating (wild oat; [5]): 0 | Plant response rating (0 to 100 scale), Pigweed (pigweed; 125 g ai/ha): 0 | Pigweed plant response rating (pigweed; [4]): 0 | Pigweed plant response rating (pigweed; [5]): 0
